# Laboratory results published in ChEMBL document CHEMBL3217667, “Extended side chain analogues of 8-aminoquinolines: Synthesis and evaluation of antiprotozoal, antimicrobial, -hematin inhibition, and cytotoxic activities” (Medchemcomm, 2011).
# Active and inactive are the calls of the source. The rule behind the calls is not given here.
# What was measured:
# Plasma = assay: Half life in human plasma; assay type: ADME, cell-free
# Vero = assay: Cytotoxicity against African green monkey Vero cells by neutral red uptake assay; assay type: cell-based; conditions: Chlorocebus sabaeus
# [1] = Inhibition of beta-hematin formation after 16 hrs; assay type: physicochemical
# Leishmania donovani = assay: Antileishmanial activity against Leishmania donovani promastigotes by Alamar Blue assay; assay type: functional, organism-based
# Staphylococcus aureus [2] = assay: Antibacterial activity against Staphylococcus aureus up to 20 ug/ml; assay type: functional, organism-based
# [3] = system: Mycobacterium intracellulare; assay: Antibacterial activity against Mycobacterium intracellulare up to 20 ug/ml; assay type: functional, organism-based
# Plasmodium falciparum [4] = assay: Antimalarial activity against chloroquine-sensitive Plasmodium falciparum D6 by lactate dehydrogenase assay; assay type: functional, organism-based; conditions: Plasmodium falciparum, D6; read-out: IC50
# [5] = Selectivity index, ratio of IC50 for African green monkey Vero cells to IC50 for chloroquine-sensitive Plasmodium falciparum D6; assay type: toxicity, cell-based; conditions: read-out: Ratio IC50
# Plasmodium falciparum [6] = assay: Antimalarial activity against chloroquine-resistant Plasmodium falciparum W2 by lactate dehydrogenase assay; assay type: functional, organism-based; conditions: Plasmodium falciparum, W2; read-out: IC50
# [7] = Selectivity index, ratio of IC50 for African green monkey Vero cells to IC50 for chloroquine-resistant Plasmodium falciparum W2; assay type: toxicity, cell-based; conditions: read-out: Ratio IC50
# SK-MEL = assay: Cytotoxicity against human SK-MEL cells by neutral red uptake assay; assay type: cell-based
# KB = assay: Cytotoxicity against human KB cells by neutral red uptake assay; assay type: cell-based
# BT-549 = assay: Cytotoxicity against human BT549 cells by neutral red uptake assay; assay type: cell-based
# SK-OV-3 = assay: Cytotoxicity against human SKOV3 cells by neutral red uptake assay; assay type: cell-based
# LLC-PK1 = assay: Cytotoxicity against pig LLC-PK1 cells by neutral red uptake assay; assay type: cell-based; conditions: Sus scrofa
# Plasmodium berghei = assay: Antimalarial activity against Plasmodium berghei infected in mouse assessed as reduction in parasitemia at 100 mg/kg/day, po for 4 days measured up to day 14; assay type: functional
# Staphylococcus aureus [8] = assay: Antibacterial activity against Staphylococcus aureus; assay type: functional, organism-based
# Staphylococcus aureus [9] = assay: Antibacterial activity against methicillin-resistant Staphylococcus aureus; assay type: functional, organism-based
# [10] = system: Mycobacterium intracellulare; assay: Antibacterial activity against Mycobacterium intracellulare; assay type: functional, organism-based
# Cryptococcus neoformans = assay: Antifungal activity against Cryptococcus neoformans by broth microdilution assay; assay type: functional, organism-based
# Pseudomonas aeruginosa = assay: Antibacterial activity against Pseudomonas aeruginosa; assay type: functional, organism-based
# Escherichia coli = assay: Antibacterial activity against Escherichia coli; assay type: functional, organism-based
# Candida albicans = assay: Antifungal activity against Candida albicans by broth microdilution assay; assay type: functional, organism-based
# Nakaseomyces glabratus = assay: Antifungal activity against Candida glabrata by broth microdilution assay; assay type: functional, organism-based
# Pichia kudriavzevii = assay: Antifungal activity against Candida krusei by broth microdilution assay; assay type: functional, organism-based
# Aspergillus fumigatus = assay: Antifungal activity against Aspergillus fumigatus by broth microdilution assay; assay type: functional, organism-based
smiles,measurement,setting,value
COc1cc(NC(C)CCCN)c2ncccc2c1 (centres undefined) [PRIMAQUINE],t1/2,Plasma,4 h
same,IC50,Vero,> 23.8 µg/mL
same,IC50,[1],> 1000 µM
same,IC90,Leishmania donovani,inactive
CCCCCCCCOc1c(OC)cc(NC(C)CCCNC(C)CCCN)c2nccc(CC)c12.Cl (centres undefined),Activity,Staphylococcus aureus [2],inactive
same,Activity,[3],inactive
same,IC50,Plasmodium falciparum [4],0.92 µg/mL
same,selectivity ratio,[5],> 25.8
same,IC50,Plasmodium falciparum [6],0.82 µg/mL
same,selectivity ratio,[7],> 29
same,IC50,Vero,> 23.8 µg/mL
same,IC50,SK-MEL,> 23.8 µg/mL
same,IC50,KB,> 23.8 µg/mL
same,IC50,BT-549,> 23.8 µg/mL
same,IC50,SK-OV-3,> 23.8 µg/mL
same,IC50,LLC-PK1,> 23.8 µg/mL
same,IC50,[1],15.7 µM
same,IC50,Leishmania donovani,17 µg/mL
same,IC90,Leishmania donovani,32 µg/mL
same,Activity,Plasmodium berghei,inactive
same,IC50,Staphylococcus aureus [8],14.5 µg/mL
same,IC50,Staphylococcus aureus [9],10.4 µg/mL
same,MBC,Staphylococcus aureus [9],20 µg/mL
same,MIC,Staphylococcus aureus [9],20 µg/mL
same,IC50,[10],> 20 µg/mL
same,IC50,Cryptococcus neoformans,8.5 µg/mL
same,MFC,Cryptococcus neoformans,20 µg/mL
same,MIC,Cryptococcus neoformans,20 µg/mL
same,Activity,Pseudomonas aeruginosa,inactive
same,Activity,Escherichia coli,inactive
same,Activity,Candida albicans,inactive
same,Activity,Nakaseomyces glabratus,inactive
same,Activity,Pichia kudriavzevii,inactive
same,Activity,Aspergillus fumigatus,inactive
